Measurements from ChEMBL document CHEMBL5678800 (Mol Cancer Ther, 2009).
Active and inactive are the calls of the source. The calls are words filed in the database; no cut-off is given here.

How the values were obtained:
[1] = biological target: T1, Protein kinase C zeta type (Homo sapiens, UniProt Q05513); experiment: Inhibition of recombinant PKCzeta (unknown origin) incubated for 60 mins in presence of ATP by electrophoretic caliper fluorescence analysis
T1 sequence (Q05513 whole entry): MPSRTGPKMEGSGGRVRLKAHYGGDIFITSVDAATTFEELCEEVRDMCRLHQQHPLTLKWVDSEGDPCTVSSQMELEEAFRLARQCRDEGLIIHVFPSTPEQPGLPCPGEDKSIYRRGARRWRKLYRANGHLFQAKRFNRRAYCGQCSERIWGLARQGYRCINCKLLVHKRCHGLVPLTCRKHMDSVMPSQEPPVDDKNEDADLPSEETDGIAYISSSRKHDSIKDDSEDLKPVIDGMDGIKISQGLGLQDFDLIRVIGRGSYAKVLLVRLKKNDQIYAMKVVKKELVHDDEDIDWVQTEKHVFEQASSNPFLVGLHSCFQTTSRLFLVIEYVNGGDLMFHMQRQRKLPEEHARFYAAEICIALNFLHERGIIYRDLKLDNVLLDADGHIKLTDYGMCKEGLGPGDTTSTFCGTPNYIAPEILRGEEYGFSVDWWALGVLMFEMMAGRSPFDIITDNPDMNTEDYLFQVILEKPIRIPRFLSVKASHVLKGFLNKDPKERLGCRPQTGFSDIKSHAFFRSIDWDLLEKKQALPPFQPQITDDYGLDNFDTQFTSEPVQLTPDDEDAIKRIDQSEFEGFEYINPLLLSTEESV

Rh41 [2] = experiment: Induction of cell cycle arrest in human Rh41 cells assessed as accumulation of cells at G2/M phase by measuring >4N DNA content at 10x IC50 incubated for 24 hrs by propidium iodide staining based flow cytometry analysis; format: functional
Rh41 [3] = experiment: Induction of cell cycle arrest in human Rh41 cells assessed as accumulation of cells at G2/M phase at 10x IC50 incubated for 24 hrs by propidium iodide staining based flow cytometry analysis relative to control; format: functional
IGF-1R-Sal = experiment: In vivo inhibition of IGF-1R phosphorylation in mouse IGF-1R-Sal cells xenografted in nude mouse at 12.5 mg/kg, po administered for 8 to 24 hrs by Western blotting analysis; format: functional, organism-based; settings: time lower 8.0 hrs, time upper […]
Mus musculus = experiment: Anti-diabetic activity against nude mouse xenografted with mouse IGF-1R-Sal cells assessed as insulin level at 25 mg/kg, po administered for 2 hrs by ELISA analysis (Rvb= 0.39 +/- […]); format: functional
GEO [4] = experiment: Antitumor activity against human GEO cells xenografted in nude mouse assessed as tumor growth inhibition at 25 mg/kg, po administered for 14 days relative to control; format: functional; settings: 336 h, time 14 day, read-out: TGI
GEO [5] = experiment: Antitumor activity against human GEO cells xenografted in nude mouse assessed as tumor growth inhibition at 25-50 mg/kg, po administered for 14 days relative to control; format: functional; settings: 336 h, time 14 day, read-out: TGI
GEO [6] = experiment: Antitumor activity against human GEO cells xenografted in nude mouse assessed as tumor growth inhibition at 6.25 mg/kg, po administered for 17 days relative to control; format: functional; settings: 408 h, time 17 day, read-out: TGI
GEO [7] = experiment: Antitumor activity against human GEO cells xenografted in nude mouse assessed as tumor growth inhibition at 25 mg/kg, po administered for 3 days in presence of cetuximab at 0.25 mg/kg relative to control; format: functional; settings: 72 h, time 3 day, read-out: TGI
GEO [8] = experiment: Antitumor activity against human GEO cells xenografted in nude mouse assessed as tumor growth inhibition at 6.25 mg/kg, po administered for 3 days in presence of cetuximab at 0.25 mg/kg relative to control; format: functional; settings: 72 h, time 3 day, read-out: TGI
GEO [9] = experiment: Antitumor activity against human GEO cells xenografted in nude mouse assessed as tumor growth inhibition at 6.25 mg/kg, po administered for 3 days in presence of cetuximab at 0.125 mg/kg relative to control; format: functional; settings: 72 h, time 3 day, read-out: TGI
GEO [10] = experiment: Antitumor activity against human GEO cells xenografted in nude mouse assessed as tumor growth delay time at 25 mg/kg, po administered for 3 days in presence of cetuximab at 0.25 mg/kg relative to control; format: functional; settings: time 3 day
GEO [11] = experiment: Antitumor activity against human GEO cells xenografted in nude mouse assessed as tumor growth delay time at 12.5 mg/kg, po administered for 3 days in presence of cetuximab at 0.25 mg/kg relative to control; format: functional; settings: time 3 day
GEO [12] = experiment: Antitumor activity against human GEO cells xenografted in nude mouse assessed as tumor growth delay time at 12.5 mg/kg, po administered for 3 days in presence of cetuximab at 0.125 mg/kg relative to control; format: functional; settings: time 3 day
GEO [13] = experiment: Antitumor activity against human GEO cells xenografted in nude mouse assessed as tumor growth delay time at 6.25 mg/kg, po administered for 3 days in presence of cetuximab at 0.125 mg/kg relative to control; format: functional; settings: time 3 day
[14] = Toxicity in nude mouse xenografted with human GEO cells assessed as body weight loss at 12.5 mg/kg, po administered for 17 days; format: organism-based; settings: in vivo, 408 h, time 17 day
[15] = Toxicity in nude mouse xenografted with human GEO cells assessed as body weight loss at 6.25 mg/kg, po administered for 17 days; format: organism-based; settings: in vivo, 408 h, time 17 day
[16] = Toxicity in nude mouse xenografted with human GEO cells assessed as body weight loss at 12.5 mg/kg, po administered for 3 days in presence of cetuximab at 0.125 mg/kg relative to control; format: organism-based; settings: in vivo, 72 h, time 3 day
[17] = Toxicity in nude mouse xenografted with human GEO cells assessed as body weight loss at 6.25 mg/kg, po administered for 3 days in presence of cetuximab at 0.125 mg/kg relative to control; format: organism-based; settings: in vivo, 72 h, time 3 day
[18] = Toxicity in nude mouse xenografted with human GEO cells assessed as mortality at 12.5 mg/kg, po administered for 17 days relative to control; format: organism-based; settings: in vivo, time 17 day
[19] = Toxicity in nude mouse xenografted with human GEO cells assessed as mortality at 6.25 mg/kg, po administered for 17 days relative to control; format: organism-based; settings: in vivo, time 17 day
[20] = Toxicity in nude mouse xenografted with human GEO cells assessed as mortality at 25 mg/kg, po administered for 3 days in presence of cetuximab at 0.125 mg/kg relative to control; format: organism-based; settings: in vivo, time 3 day
[21] = Toxicity in nude mouse xenografted with human GEO cells assessed as mortality at 12.5 mg/kg, po administered for 3 days in presence of cetuximab at 0.125 mg/kg relative to control; format: organism-based; settings: in vivo, time 3 day
[22] = Plasma concentration in nude mouse xenografted with mouse IGF-1R-Sal cells po administered for 2 hrs by LC-MS/MS analysis
RD1 = experiment: Antitumor activity against human RD1 cells xenografted in nude mouse assessed as tumor growth inhibition at 50 mg/kg, po administered for 14 days relative to control; settings: 336 h, read-out: TGI
Rh41 [23] = experiment: Induction of cell cycle arrest in human Rh41 cells assessed as accumulation of cells at sub-G1 phase at 10x IC50 incubated for 24 hrs by propidium iodide staining based flow cytometry analysis (reference value: […])

Compound: C[C@@]1(C(=O)Nc2ccc(F)nc2)CCCN1c1nc(Nc2cc(C3CC3)n[nH]2)c2cccn2n1 [BMS-754807]
- IC50 [1]: > 50 µM
- Activity (Rh41 [2]): Active
- Activity (Rh41 [3]): 2.8%
- inhibition (IGF-1R-Sal): Active
- Activity (Mus musculus): 17.2 ng/mL
- inhibition in vivo at 25 mg/kg (GEO [4]): 56%
- inhibition in vivo at 50 mg/kg (GEO [5]): 41%
- inhibition in vivo at 6.25 mg/kg (GEO [6]): 24%
- inhibition in vivo at 25 mg/kg (GEO [7]): 88%
- inhibition in vivo at 6.25 mg/kg (GEO [8]): 86%
- inhibition in vivo at 6.25 mg/kg (GEO [9]): 79%
- Time (GEO [10]): 24 days
- Time (GEO [11]): 38 days
- Time (GEO [12]): 30 days
- Time (GEO [13]): 20 days
- Activity [14]: -0.8 g
- Activity [15]: -0.4 g
- Activity [16]: 0.4 g
- Activity [17]: 1.2 g
- mortality at 408 h [18]: 0%
- mortality at 408 h [19]: 0%
- mortality at 72 h [20]: 0%
- mortality at 72 h [21]: 0%
- concentration at 2 h [22]: 94 nM
- inhibition in vivo at 50 mg/kg (RD1): 58%
- Activity (Rh41 [23]): 23.1%
